Where two headings read alike, the source gives them in different places.
What was measured:
[1] = tested on: Herpes simplex virus 1 (HSV-1); test: Growth inhibition of HSV-1 in vitro (Vero cells, cytopathic effect / plaques); type: cell-based; settings: for Upper pH limit at which HSV-1 is inactivated by the alcohol: alcohol 0.2% by volume, pH adjusted with HCl, tested pH 4.0 to 6.8 at increments of 0.2, incubated with the virus for 2 minutes; for Virus growth (HSV-1): pH 3.5 (HCl)
[2] = tested on: "enveloped" viruses (herpesvirus, orthomyxovirus and rhabdovirus (Rabies virus)); settings: room temperature, aqueous solutions of pure acids; cited from earlier work
rhinoviruses = settings: foams; cited from earlier work
[3] = tested on: naked viruses (e.g., poliovirus type 1); settings: alcohol alone; cited from earlier work
[4] = tested on: VSV (a lipid-coated virus); settings: cited from earlier work

Compound: CCC(O)CO (stereo not drawn) [1,2-butanediol]
- Upper pH limit at which HSV-1 is inactivated by the alcohol [1]: 4.2

Compound: CC(O)C(C)O (stereo not drawn) [2,3-butanediol]
- Upper pH limit at which HSV-1 is inactivated by the alcohol [1]: 4.6

Compound: O=C(O)CC(O)(CC(=O)O)C(=O)O [citric acid]
- Effectiveness in vitro against enveloped viruses [2]: effective

Compound: CCO [ethanol]
- Virus growth (HSV-1) ([1]; 1.0% ethanol, 5 minute exposure, diluted 1/16 with Eagles medium): +
- Virus growth (HSV-1) ([1]; 1.0% ethanol, 5 minute exposure, diluted 1/64 with Eagles medium): +
- Virus growth (HSV-1) ([1]; 1.0% ethanol, 5 minute exposure, diluted ¼ with Eagles medium): +
- Virus growth (HSV-1) ([1]; 1.0% ethanol, 5 minute exposure, undiluted): +
- Virus growth (HSV-1) ([1]; 1.0% ethanol, 10 minute exposure, diluted 1/16 with Eagles medium): +
- Virus growth (HSV-1) ([1]; 1.0% ethanol, 10 minute exposure, diluted 1/64 with Eagles medium): +
- Virus growth (HSV-1) ([1]; 1.0% ethanol, 10 minute exposure, diluted ¼ with Eagles medium): +
- Virus growth (HSV-1) ([1]; 1.0% ethanol, 10 minute exposure, undiluted): −
- Inhibition of growth of the virus (HSV-1) ([1]; 2.5% ethanol solution diluted by ¼, pH 3.5, exposure time 10 minutes): effectively inhibited growth of the virus
- Virus growth (HSV-1) ([1]; 2.5% ethanol, 5 minute exposure, diluted 1/16 with Eagles medium): +
- Virus growth (HSV-1) ([1]; 2.5% ethanol, 5 minute exposure, diluted 1/64 with Eagles medium): +
- Virus growth (HSV-1) ([1]; 2.5% ethanol, 5 minute exposure, diluted ¼ with Eagles medium): +
- Virus growth (HSV-1) ([1]; 2.5% ethanol, 5 minute exposure, undiluted): +
- Virus growth (HSV-1) ([1]; 2.5% ethanol, 10 minute exposure, diluted 1/16 with Eagles medium): +
- Virus growth (HSV-1) ([1]; 2.5% ethanol, 10 minute exposure, diluted 1/64 with Eagles medium): +
- Virus growth (HSV-1) ([1]; 2.5% ethanol, 10 minute exposure, diluted ¼ with Eagles medium): −
- Virus growth (HSV-1) ([1]; 2.5% ethanol, 10 minute exposure, undiluted): −
- Virus growth (HSV-1) ([1]; 5.0% ethanol, 5 minute exposure, diluted 1/16 with Eagles medium): +
- Virus growth (HSV-1) ([1]; 5.0% ethanol, 5 minute exposure, diluted 1/64 with Eagles medium): +
- Virus growth (HSV-1) ([1]; 5.0% ethanol, 5 minute exposure, diluted ¼ with Eagles medium): +
- Virus growth (HSV-1) ([1]; 5.0% ethanol, 5 minute exposure, undiluted): +
- Virus growth (HSV-1) ([1]; 5.0% ethanol, 10 minute exposure, diluted 1/16 with Eagles medium): +
- Virus growth (HSV-1) ([1]; 5.0% ethanol, 10 minute exposure, diluted 1/64 with Eagles medium): +
- Virus growth (HSV-1) ([1]; 5.0% ethanol, 10 minute exposure, diluted ¼ with Eagles medium): −
- Virus growth (HSV-1) ([1]; 5.0% ethanol, 10 minute exposure, undiluted): −
- Virus growth (HSV-1) ([1]; 10% ethanol, 5 minute exposure, diluted 1/16 with Eagles medium): +
- Virus growth (HSV-1) ([1]; 10% ethanol, 5 minute exposure, diluted 1/64 with Eagles medium): +
- Virus growth (HSV-1) ([1]; 10% ethanol, 5 minute exposure, diluted ¼ with Eagles medium): +
- Virus growth (HSV-1) ([1]; 10% ethanol, 5 minute exposure, undiluted): +
- Virus growth (HSV-1) ([1]; 10% ethanol, 10 minute exposure, diluted 1/16 with Eagles medium): +
- Virus growth (HSV-1) ([1]; 10% ethanol, 10 minute exposure, diluted 1/64 with Eagles medium): +
- Virus growth (HSV-1) ([1]; 10% ethanol, 10 minute exposure, diluted ¼ with Eagles medium): −
- Virus growth (HSV-1) ([1]; 10% ethanol, 10 minute exposure, undiluted): −
- Inhibition of the virus (HSV-1) ([1]; 12.5% ethanol solution, pH 3.5, exposure time of five minutes): inhibited the virus
- Virus growth (HSV-1) ([1]; 12.5% ethanol, 5 minute exposure, diluted 1/16 with Eagles medium): +
- Virus growth (HSV-1) ([1]; 12.5% ethanol, 5 minute exposure, diluted 1/64 with Eagles medium): +
- Virus growth (HSV-1) ([1]; 12.5% ethanol, 5 minute exposure, diluted ¼ with Eagles medium): −
- Virus growth (HSV-1) ([1]; 12.5% ethanol, 5 minute exposure, undiluted): −
- Virus growth (HSV-1) ([1]; 12.5% ethanol, 10 minute exposure, diluted 1/16 with Eagles medium): −
- Virus growth (HSV-1) ([1]; 12.5% ethanol, 10 minute exposure, diluted 1/64 with Eagles medium): +
- Virus growth (HSV-1) ([1]; 12.5% ethanol, 10 minute exposure, diluted ¼ with Eagles medium): −
- Virus growth (HSV-1) ([1]; 12.5% ethanol, 10 minute exposure, undiluted): −
- Upper pH limit at which HSV-1 is inactivated by the alcohol [1]: 4.4
- Effectiveness in killing rhinoviruses (rhinoviruses): not effective
- Activity against naked viruses [3]: did not exhibit sufficient activities
- Virucidal activity against VSV ([4]; pH of about 4 to 5 at 4° C., aqueous solution of biologically active protein): fairly inactive

Compound: O=C(O)CO [glycolic acid]
- Virus growth at sample dilution (HSV-1) ([1]; aqueous acid solution pH 3.8, exposure of 4 minutes, dilution 1/16): −
- Virus growth at sample dilution (HSV-1) ([1]; aqueous acid solution pH 3.8, exposure of 4 minutes, dilution 1/64): −
- Virus growth at sample dilution (HSV-1) ([1]; aqueous acid solution pH 3.8, exposure of 4 minutes, dilution ¼): −
- Virus growth at sample dilution (HSV-1) ([1]; aqueous acid solution pH 3.8, exposure of 4 minutes, undiluted): −
- Virus growth at sample dilution (HSV-1) ([1]; aqueous acid solution pH 4.0, exposure of 4 minutes, dilution 1/16): +
- Virus growth at sample dilution (HSV-1) ([1]; aqueous acid solution pH 4.0, exposure of 4 minutes, dilution 1/64): +
- Virus growth at sample dilution (HSV-1) ([1]; aqueous acid solution pH 4.0, exposure of 4 minutes, dilution ¼): +
- Virus growth at sample dilution (HSV-1) ([1]; aqueous acid solution pH 4.0, exposure of 4 minutes, undiluted): +
- Virus growth at sample dilution (HSV-1) ([1]; aqueous acid solution pH 4.2, exposure of 4 minutes, dilution 1/16): +
- Virus growth at sample dilution (HSV-1) ([1]; aqueous acid solution pH 4.2, exposure of 4 minutes, dilution 1/64): +
- Virus growth at sample dilution (HSV-1) ([1]; aqueous acid solution pH 4.2, exposure of 4 minutes, dilution ¼): +
- Virus growth at sample dilution (HSV-1) ([1]; aqueous acid solution pH 4.2, exposure of 4 minutes, undiluted): −
- Virus growth at sample dilution (HSV-1) ([1]; aqueous acid solution pH 6.0, exposure of 4 minutes, dilution 1/16): +
- Virus growth at sample dilution (HSV-1) ([1]; aqueous acid solution pH 6.0, exposure of 4 minutes, dilution 1/64): +
- Virus growth at sample dilution (HSV-1) ([1]; aqueous acid solution pH 6.0, exposure of 4 minutes, dilution ¼): +
- Virus growth at sample dilution (HSV-1) ([1]; aqueous acid solution pH 6.0, exposure of 4 minutes, undiluted): +

Compound: O=C(O)CC(O)C(=O)O (stereo not drawn) [malic acid]
- Effectiveness in vitro against enveloped viruses [2]: effective

Compound: CO [methanol]
- Upper pH limit at which HSV-1 is inactivated by the alcohol [1]: 4.6

Compound: CCCCO [n-butanol]
- Upper pH limit at which HSV-1 is inactivated by the alcohol [1]: 4.6

Compound: CCCO [propanol, reference compound]
- Activity against naked viruses [3]: did not exhibit sufficient activities

Compound: CC(=O)C(=O)O [pyruvic acid]
- Effectiveness in vitro against enveloped viruses [2]: effective

Compound: O=C(O)CCC(=O)O [succinic acid]
- Effectiveness in vitro against enveloped viruses [2]: effective

Compound: butanol [reference compound]
- Virucidal activity against VSV [4]: fairly inactive

Reference: patent US9737498B2, “Method for treating an inflammation or lesion caused by a virus” (priority 2001, dated 2017)
